Measured values reported in ChEMBL document CHEMBL3507680, “University of Dundee, Gates Library screen for HepG2 cell viability”.

experiment: Human HepG2 cell viability assay in 384 well format; type: toxicity, cell-based; set-up: dose 125 nL, time 70.5 hour; concentration not given beside the values; conditions: HepG2 cells, read-out: Inhibition

Row | Compound | cytotoxicity at 70.5 h [%]
1 | c1coc(-c2nc(CN3CCn4c(nnc4C4CC4)C3)cs2)c1 | -8.26
2 | O=C(c1cc(COc2ccc3c(c2)OCO3)[nH]n1)N1CCCO1 | -2.52
3 | O=C(CCNC(=O)c1sccc1-c1ccccc1)NC1CCS(=O)(=O)C1 (stereo unspecified) | -9.28
4 | CCN1CCCC1CNCc1cc2cc(C)c(C)cc2[nH]c1=O (stereo unspecified) | -2.24
5 | Cc1ccc(N2C[C@@H]3CN(Cc4ccoc4)CCO[C@@H]3C2)nn1 | 10.2
6 | O=C(CCn1ccnn1)N1CCCC(n2cncn2)C1 (stereo unspecified) | -6.6
7 | CCc1noc(CS(=O)(=O)Cc2nc(Cc3ccccc3)no2)n1 | -5.38
8 | c1cncc(COCc2nnc3n2CCN(Cc2ccsc2)C3)c1 | -2.47
9 | Cn1c(-c2cc3n(n2)CCCN(CC(=O)O)C3)nc2ccccc21 | 22.8
10 | Cc1nnc(C(NS(=O)(=O)c2cc(C#N)ccc2C)C(C)C)[nH]1 (stereo unspecified) | -5.93
11 | Cc1ccc(N2N=C(C(=O)O)S(=O)(=O)c3cccnc32)cc1 | -8.77
12 | O=C(c1cccc(F)c1Cl)N(CCO)CC1CC1 | -1.98
13 | COc1ncccc1CNC(=O)c1ccc(C)[nH]c1=O | 12.6
14 | O=C1Nc2ccccc2C12CCCN(Cc1ccncc1)C2 (stereo unspecified) | -10.6
15 | CNC(=O)c1cccc(CN2CCN(C3=NCC(C)(C)S3)CC2)c1 | -5.92
16 | Cc1nsc(NCCNS(=O)(=O)c2ccccc2)n1 | -1.39
17 | CN1CCN(c2ccccc2NC(=O)NCCc2ccccc2)CC1 | -5.11
18 | CCCOC(=O)N1CCn2nc(-c3nc4ccccc4n3C)cc2C1 | -5.25
19 | COc1ccccc1CNC(Cn1cncn1)c1ccccc1 (stereo unspecified) | -2.53
20 | COc1ccccc1C(O)Cn1cc(C(=O)NCC2CC2)nn1 (stereo unspecified) | -2.27
21 | Cc1noc(NC(=O)c2ccc(Br)cc2)n1 | 48.3

Row | Compound | cytotoxicity at 70.5 h [%]
22 | Cn1cc(CNc2nc3cc(Cl)ccc3n2C)cn1 | -0.411
23 | CCc1cc(CN(C)Cc2nc(-c3ccc(OC)cc3F)oc2C)on1 | -5.4
24 | Cc1ccc(-c2cc(C(=O)NCC3CCOC3)n[nH]2)s1 (stereo unspecified) | 20.2
25 | CCS(=O)(=O)CCCOc1nc(-c2ccccc2Cl)no1 | -96.6
26 | CCC(C)CN1CCC(n2cc(C3CCCCC3)nn2)CC1 (stereo unspecified) | 14.7
27 | CCOC(=O)Cn1cccc(S(=O)(=O)N2CCCC2)c1=O | -26.6
28 | CCc1nnsc1C(=O)N1CCCN(Cc2cnn(C)c2)CC1 | -27.3
29 | O=C(NC1CCN(C2CC2)CC1)c1cn(-c2ccc(Cl)cc2)nn1 | -7.11
30 | Cc1ccc(C)c(OCc2nnc(SCC3CCCN(C)C3)o2)c1 (stereo unspecified) | -5.12
31 | COCCN1C(=O)CO[C@H]2CN(Cc3c[nH]nc3-c3ccccc3)C[C@@H]21 | -9.3
32 | O=C(Cc1ccccn1)N1C[C@@H](Oc2cccnc2)[C@H]2OCCC[C@H]21 | 28.2
33 | O=C(COc1coc(CN2CCOCC2)cc1=O)c1ccc(Cl)cc1 | -9.03
34 | Cc1nc(CNC2CCc3nc(C(C)C)nn3C2)oc1C (stereo unspecified) | -4.84
35 | CCC(=O)N1CCC(c2ncc3c(n2)CCNC3)CC1 | -4.58
36 | CCC(C)Oc1ccc(CNCCc2c[nH]cn2)cc1Cl (stereo unspecified) | 24.1
37 | CCn1cc(NC(=O)C2CCN(Cc3nc(C(C)C)no3)CC2)cn1 | -6.8
38 | CN(C)S(=O)(=O)N1CCCC(c2cccc(Cc3ccc(F)cc3)n2)C1 (stereo unspecified) | 3.53
39 | CCOCCSc1nnc(Cc2ccccc2F)o1 | -0.117
40 | Cc1nc(CNC(=O)N(Cc2ccccc2)CC(C)(C)O)oc1C | -3.06
41 | CC(C)[C@@H]1CN(S(=O)(=O)c2cccc(C(=O)O)c2)C[C@H]1N(C)C | 17.4
42 | O=C(O)c1nc(SCc2ccc(F)cc2)ncc1Br | -7.86

Row | Compound | cytotoxicity at 70.5 h [%]
43 | CS(=O)(=O)CCN1CCc2c(ncn2C2CC2)C1 | -3.42
44 | Cn1cc(C2CCCN2Cc2csc(C3CCCC3)n2)cn1 (stereo unspecified) | 0.499
45 | CC(C)(C)CC(=O)N1CCCC2(CC(C(=O)Nc3ccccc3)=NO2)C1 (stereo unspecified) | -8.03
46 | CC(C)CCN(C)C(=O)c1cnc2c(cnn2CC(C)C)c1 | 1.58
47 | CS(=O)(=O)N1CCCCC12CCN(C(=O)c1ccccc1)C2 (stereo unspecified) | -8.78
48 | COCCN(Cc1ccc(C)cc1)Cc1c[nH]cn1 | -7.56
49 | O=C(CCc1ccco1)N1CCCC(n2cccn2)C1 (stereo unspecified) | -0.72
50 | CCCn1[nH]cc/c1=N\C(=O)CN1CCC[C@H]1CO | 2.76
51 | CC(C)(C)c1ccc(C(=O)NCCCNC(=O)c2cnccn2)cc1 | -3.26
52 | Cc1noc(C)c1CN(C)CC1CCCN1c1cccnn1 (stereo unspecified) | -7.19
53 | OCCn1nccc1C1CCN(CCCOc2ccc(F)cc2)CC1 | -1.62
54 | O=C([C@@H]1CC[C@@H]2[C@@H](CCN2Cc2ccncc2)O1)N1CCCCO1 | -6.89
55 | CC(=O)N1CCN([C@@H]2CN(C(=O)c3ccccc3C)C[C@H]2O)CC1 | -3.99
56 | CCS(=O)(=O)N1CCCC(c2ccnc(N(C)C)c2)C1 (stereo unspecified) | -6.79
57 | COc1ccccc1OCc1cc(C(=O)N2CC=CC2C(C)C)n[nH]1 (stereo unspecified) | -6.89
58 | Cc1nc(C)n(CC2CCCN2CCc2ccncc2)n1 (stereo unspecified) | 18.1
59 | CNc1nc(CNC(=O)Nc2cccc(CN(C)C)c2)cs1 | 0.614
60 | CO[C@H]1COCCN(C(=O)c2ccno2)C1 | -1.71
61 | COc1c(C2CC(=O)Nc3[nH]ncc32)cc2c(c1OC)OCO2 (stereo unspecified) | -13.5
62 | O=C(O)c1cccnc1CN1CCOc2ccccc2C1 | -9.48
63 | Cc1nc(C)n(C2CCCN(C(=O)c3cccc4cn[nH]c34)C2)n1 (stereo unspecified) | -13.2

Row | Compound | cytotoxicity at 70.5 h [%]
64 | CN(Cc1nc(Cc2cccc(C(F)(F)F)c2)no1)CC1CCCCO1 (stereo unspecified) | -11.5
65 | CC(C)NC(=O)CS(=O)(=O)Cc1cc(Cl)c2c(c1)OCCO2 | -1.77
66 | COC(=O)C(O)C1CCN(CCc2ccncc2)CC1 (stereo unspecified) | 9.73
67 | Cn1c(N)nnc1SC1CCCN(c2ccccc2)C1=O (stereo unspecified) | -1
68 | Cc1ccc(OCC(=O)N(C)Cc2cccc(F)c2)cn1 | -3.84
69 | O=C(c1cscn1)N1CCC[C@]2(C[C@@H](OCC3CC3)CO2)C1 | -11
70 | c1ccc(Cn2ccnc2CNC2CCCOc3ccccc32)cc1 (stereo unspecified) | -6.62
71 | Cc1nc(CN(C)C(=O)c2ccc(Cn3cnnn3)cc2)cs1 | 21.4
72 | O=C(C1=COCCO1)N1CC(Oc2nc3c(C(F)(F)F)cccc3s2)C1 | 10.3
73 | Cn1cc(C(=O)NC[C@@H]2OC[C@H]3CN(S(C)(=O)=O)CC[C@H]32)cn1 | -3.04
74 | Cc1cccc(CN2CC[C@@H]3[C@@H]2CCN3C(=O)c2ccno2)n1 | -4.67
75 | O=C(NCC1COC2(CCOCC2)O1)c1csc(-c2cccc(Cl)c2)n1 (stereo unspecified) | -20.8
76 | Cc1cnn(C2CCCN(C(=O)c3cc(-c4ccco4)[nH]n3)C2)c1 (stereo unspecified) | -11.8
77 | CCN(C)C(=O)NCC1(CN2CCOCC2)CCCCC1 | -4.49
78 | CN(CCc1ccccn1)C(=O)Nc1cc(C(F)(F)F)c[nH]c1=O | 8.07
79 | CN(C)C[C@@H]1CN(C(=O)Cc2ccc3ccccc3c2)C[C@@H]1CO | -8.64
80 | Cc1ncnc(NCCCN2CCCCC2CO)c1C (stereo unspecified) | -1.1
81 | CN(C)C(=O)[C@H]1C[C@@H]2CN(S(=O)(=O)c3ccccc3)C[C@H]1O2 | -6.1
